Experimental data from patent US20250034216A1, “STEREOSELECTIVE COVALENT LIGANDS FOR ONCOGENIC AND IMMUNOLOGICAL PROTEINS” (The Scripps Research Institute, priority 2021, published 2025).

Assays:
Assay in all cases: IA-DTB cysteine engagement
Assay type in all cases: binding
Settings in all cases: 22Rv1 cells, 20 μM probe, 1 h, relative to DMSO
NELFCD_C169 = biological target: T1, NELFCD_C169 (Homo sapiens, UniProt Q8IXH7)
T1 construct: endogenous in cells; host or cells: 22Rv1
Method in brief: (§1)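 In-situ probe treatment of cells; lysate 2 mg/mL, IA-DTB 1 h RT; MeOH/CHCl3 precipitation, DTT/iodoacetamide, trypsin; streptavidin enrichment; TMT labeling, high-pH fractionation. Ratio = TMT reporter intensity / mean DMSO channels, median-normalized.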

APOOL_C79 = biological target: T2, APOOL_C79 (Homo sapiens, UniProt Q6UXV4)
T2 construct: endogenous in cells; host or cells: 22Rv1
T2 sequence (Q6UXV4 28-268): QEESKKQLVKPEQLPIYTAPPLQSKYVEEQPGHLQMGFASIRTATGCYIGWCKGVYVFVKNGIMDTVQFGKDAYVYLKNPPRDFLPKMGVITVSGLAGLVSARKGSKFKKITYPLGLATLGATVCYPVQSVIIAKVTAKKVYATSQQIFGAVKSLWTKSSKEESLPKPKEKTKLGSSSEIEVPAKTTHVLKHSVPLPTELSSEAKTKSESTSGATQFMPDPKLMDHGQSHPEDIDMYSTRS
Method in brief: as §1

VWA5B2_C1040 = biological target: T3, VWA5B2_C1040 (Homo sapiens, UniProt Q8N398)
T3 construct: endogenous in cells; host or cells: 22Rv1
T3 sequence (Q8N398 1-1242): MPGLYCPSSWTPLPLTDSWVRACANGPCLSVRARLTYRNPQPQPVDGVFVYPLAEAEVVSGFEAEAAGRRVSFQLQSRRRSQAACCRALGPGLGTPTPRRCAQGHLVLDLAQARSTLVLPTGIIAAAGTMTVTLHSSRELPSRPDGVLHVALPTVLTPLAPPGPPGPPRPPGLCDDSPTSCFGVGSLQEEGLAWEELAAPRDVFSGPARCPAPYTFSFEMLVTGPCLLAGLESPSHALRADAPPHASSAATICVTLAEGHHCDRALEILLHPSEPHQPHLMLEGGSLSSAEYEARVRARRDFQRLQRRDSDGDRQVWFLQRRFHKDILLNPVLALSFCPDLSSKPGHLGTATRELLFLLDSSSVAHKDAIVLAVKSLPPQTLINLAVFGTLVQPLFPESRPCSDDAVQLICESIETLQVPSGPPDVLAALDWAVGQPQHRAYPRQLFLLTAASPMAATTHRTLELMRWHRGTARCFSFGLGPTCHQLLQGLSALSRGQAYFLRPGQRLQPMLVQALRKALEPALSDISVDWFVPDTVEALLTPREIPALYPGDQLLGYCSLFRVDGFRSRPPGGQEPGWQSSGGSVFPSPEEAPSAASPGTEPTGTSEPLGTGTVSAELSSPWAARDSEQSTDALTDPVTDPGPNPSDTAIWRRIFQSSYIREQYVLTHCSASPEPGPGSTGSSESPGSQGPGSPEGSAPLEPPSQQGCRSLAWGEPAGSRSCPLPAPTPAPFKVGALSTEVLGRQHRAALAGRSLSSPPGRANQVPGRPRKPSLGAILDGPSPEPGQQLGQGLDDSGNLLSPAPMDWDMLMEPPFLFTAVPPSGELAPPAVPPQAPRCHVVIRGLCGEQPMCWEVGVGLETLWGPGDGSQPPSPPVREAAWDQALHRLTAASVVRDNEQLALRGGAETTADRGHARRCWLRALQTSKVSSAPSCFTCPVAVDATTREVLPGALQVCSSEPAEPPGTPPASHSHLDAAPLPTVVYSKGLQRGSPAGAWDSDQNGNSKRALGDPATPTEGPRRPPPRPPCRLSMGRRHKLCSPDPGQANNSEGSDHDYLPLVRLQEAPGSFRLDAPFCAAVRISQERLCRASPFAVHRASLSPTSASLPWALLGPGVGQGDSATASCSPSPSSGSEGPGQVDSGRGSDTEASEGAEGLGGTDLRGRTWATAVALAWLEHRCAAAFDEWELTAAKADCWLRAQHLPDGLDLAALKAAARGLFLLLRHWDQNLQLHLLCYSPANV
Method in brief: as §1

T1 sequence (Q8IXH7 whole entry): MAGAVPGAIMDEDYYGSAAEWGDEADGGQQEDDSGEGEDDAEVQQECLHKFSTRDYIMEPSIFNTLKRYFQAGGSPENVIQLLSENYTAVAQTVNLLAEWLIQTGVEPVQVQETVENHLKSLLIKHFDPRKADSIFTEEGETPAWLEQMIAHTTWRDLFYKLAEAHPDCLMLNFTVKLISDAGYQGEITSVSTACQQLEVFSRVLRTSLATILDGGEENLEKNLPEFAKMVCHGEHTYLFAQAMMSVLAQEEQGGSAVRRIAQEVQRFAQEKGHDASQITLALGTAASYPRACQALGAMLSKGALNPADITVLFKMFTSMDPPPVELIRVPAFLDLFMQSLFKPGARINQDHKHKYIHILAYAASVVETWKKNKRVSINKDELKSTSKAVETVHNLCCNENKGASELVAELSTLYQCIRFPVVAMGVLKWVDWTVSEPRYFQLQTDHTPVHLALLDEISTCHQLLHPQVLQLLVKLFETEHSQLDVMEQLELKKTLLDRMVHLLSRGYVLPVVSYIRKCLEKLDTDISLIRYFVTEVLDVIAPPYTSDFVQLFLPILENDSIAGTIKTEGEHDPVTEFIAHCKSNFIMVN

SMILES | % engagement NELFCD_C169 (NELFCD_C169) [%] | % engagement APOOL_C79 (APOOL_C79) [%] | % engagement VWA5B2_C1040 (VWA5B2_C1040) [%]
C=CC(=O)N1C[C@@H](c2ccc(Br)cc2)[C@H]1C(=O)Nc1cccc2cccnc12 [MY-1A, (2S,3R)-1-acryloyl-3-(4-bromophenyl)-N-(quinolin-8-yl)azetidine-2-carboxamide] | 51 | 54.25 | 76.5
C=CC(=O)N1C[C@H](c2ccc(Br)cc2)[C@@H]1C(=O)Nc1cccc2cccnc12 [MY-1B, (2R,3S)-1-acryloyl-3-(4-bromophenyl)-N-(quinolin-8-yl)azetidine-2-carboxamide] | 41.75 | 73 | 76.25
C=CC(=O)N1C[C@H](c2ccc(Br)cc2)[C@H]1C(=O)Nc1cccc2cccnc12 [MY-3A, (2S,3S)-1-acryloyl-3-(4-bromophenyl)-N-(quinolin-8-yl)azetidine-2-carboxamide] | 40.75 | 48 | 51.5
C=CC(=O)N1C[C@H](c2ccc(Br)cc2)[C@H]1C(=O)Nc1cccc2cccnc12 [MY-3B, (2S,3S)-1-acryloyl-3-(4-bromophenyl)-N-(quinolin-8-yl)azetidine-2-carboxamide] | 69.5 | 69 | 74.25
